From patent publication US9271971B2, “Pyrido[3,4-B]indoles and methods of use” (Medivation Technologies, Inc., priority 2009, dated 2016)

Columns and labels:
[1] = target: T1, human recombinant adrenergic α1D receptor (Homo sapiens, UniProt P25100); assay: Adrenergic α1D radioligand binding assay; settings: [3H]Prozosin specific binding; for inhibition at 1 µM: read-out: Percent Inhibition of ligand binding, Adrenergic (1 μM ligand conc.) α1D
T1 construct: expressed in transfected cells; host or cells: human embryonic kidney (HEK-293) cells
T1 sequence (P25100 1-572): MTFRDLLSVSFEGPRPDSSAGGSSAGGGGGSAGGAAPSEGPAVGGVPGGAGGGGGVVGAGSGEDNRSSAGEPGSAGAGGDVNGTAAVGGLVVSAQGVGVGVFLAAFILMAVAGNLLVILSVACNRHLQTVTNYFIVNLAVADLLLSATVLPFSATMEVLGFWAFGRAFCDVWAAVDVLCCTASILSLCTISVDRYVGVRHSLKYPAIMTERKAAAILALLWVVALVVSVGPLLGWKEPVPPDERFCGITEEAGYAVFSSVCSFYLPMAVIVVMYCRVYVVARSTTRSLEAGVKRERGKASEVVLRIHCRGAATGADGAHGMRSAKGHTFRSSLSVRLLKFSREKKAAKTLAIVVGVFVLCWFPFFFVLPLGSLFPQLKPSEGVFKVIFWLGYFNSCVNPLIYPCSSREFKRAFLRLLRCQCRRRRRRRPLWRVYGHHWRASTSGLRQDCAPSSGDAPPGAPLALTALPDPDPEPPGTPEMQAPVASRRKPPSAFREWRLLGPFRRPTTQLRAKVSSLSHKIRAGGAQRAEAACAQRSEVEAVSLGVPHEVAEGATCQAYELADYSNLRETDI
Experimental: To evaluate in radioligand binding assays the activity of compounds of the invention, human recombinant adrenergic α1D receptor expressed in human embryonic kidney (HEK-293) cells [Kenny, B. A. et al. Br. J. Pharmacol. (1995), 115(6):981] in a 50 mM Tris-HCl buffer, pH 7.4, was used. Compounds of invention were incubated with 0.6 nM [^3H]Prozosin for 60 min. at 25° C. Non-specific binding was estimated in the presence of 10 μM phentolamine. Receptor proteins were filtered and washed, the filters were then counted to determine [^3H]Prozosin specifically bound. Compounds were screened at 1 μM or lower, using 1% DMSO as vehicle. Compounds of the invention were tested in this biochemical assay. Biochemical assay results for representative compounds were presented as the percent inhibition of specific binding in Table 3.

[2] = target: T2, human recombinant serotonin (5-Hydroxytryptamine) 5-HT2A receptor (Homo sapiens, UniProt P28223); assay: Serotonin 5-HT2A radioligand binding assay; settings: [3H]Ketanserin specific binding, read-out: Percent Inhibition of ligand binding, Serotonin (1 μM ligand concentration) 5-HT2A
T2 construct: expressed in transfected cells; host or cells: Chinese hamster ovary (CHO-K1) cells
Experimental: To evaluate in radioligand binding assays the activity of compounds of the invention, human recombinant serotonin (5-Hydroxytryptamine) 5-HT2A receptor expressed in Chinese hamster ovary (CHO-K1) cells [Bonhaus, D. W. et al., Br. J. Pharmacol. (1995), 115:622; Saucier, C. et al., J. Neurochem. (1997), 68:1998] in a 50 mM Tris-HCl buffer, pH 7.4, was used. Compounds of the invention were incubated with 0.5 nM [^3H]Ketanserin for 60 min. at 25° C. Non-specific binding was estimated in the presence of 1 μM Mianserin. Receptor proteins were filtered and washed, the filters were then counted to determine [^3H]Ketanserin specifically bound. Compounds were screened at 1 μM or lower, using 1% DMSO as vehicle. Biochemical assay results are presented as the percent inhibition of specific binding in Table 4.

[3] = target: T3, human recombinant serotonin (5-Hydroxytryptamine) 5-HT2C receptor (Homo sapiens, UniProt P28335); assay: Serotonin 5-HT2C radioligand binding assay; settings: [3H]Mesulergine specific binding, read-out: Percent Inhibition of ligand binding, Serotonin (1 μM ligand concentration) 5-HT2C
T3 construct: expressed in transfected cells; host or cells: Chinese hamster ovary (CHO-K1) cells
T3 sequence (P28335 33-458): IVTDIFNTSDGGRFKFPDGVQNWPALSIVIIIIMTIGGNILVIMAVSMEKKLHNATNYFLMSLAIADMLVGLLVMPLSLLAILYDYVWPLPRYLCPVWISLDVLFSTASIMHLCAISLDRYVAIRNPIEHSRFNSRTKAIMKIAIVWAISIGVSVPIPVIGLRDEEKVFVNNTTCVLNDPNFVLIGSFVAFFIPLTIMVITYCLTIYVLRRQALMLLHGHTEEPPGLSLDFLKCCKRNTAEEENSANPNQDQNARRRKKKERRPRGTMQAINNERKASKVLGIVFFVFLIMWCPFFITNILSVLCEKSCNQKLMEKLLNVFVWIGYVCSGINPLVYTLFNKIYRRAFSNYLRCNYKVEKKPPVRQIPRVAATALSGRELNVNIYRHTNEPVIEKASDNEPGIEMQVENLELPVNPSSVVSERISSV
Experimental: To evaluate in radioligand binding assays the activity of compounds of the invention, human recombinant serotonin (5-Hydroxytryptamine) 5-HT2C receptor expressed in Chinese hamster ovary (CHO-K1) cells [Wolf, W. A. et al., J. Neurochem. (1997), 69:1449] in a modified Tris-HCl buffer (50 mM Tris-HCl, pH 7.4, 0.1% Ascorbic Acid, 10 μM Pargyline) was used. Compounds of the invention were incubated with 1 nM [^3H]Mesulergine for 60 min. at 25° C. Non-specific binding was estimated in the presence of 1 μM Mianserin. Receptor proteins were filtered and washed, the filters were then counted to determine [^3H]Mesulergine specifically bound. Compounds were screened at 1 μM or lower, using 1% DMSO as vehicle. Biochemical assay results are presented as the percent inhibition of specific binding in Table 4.

T2 sequence (P28223 whole entry): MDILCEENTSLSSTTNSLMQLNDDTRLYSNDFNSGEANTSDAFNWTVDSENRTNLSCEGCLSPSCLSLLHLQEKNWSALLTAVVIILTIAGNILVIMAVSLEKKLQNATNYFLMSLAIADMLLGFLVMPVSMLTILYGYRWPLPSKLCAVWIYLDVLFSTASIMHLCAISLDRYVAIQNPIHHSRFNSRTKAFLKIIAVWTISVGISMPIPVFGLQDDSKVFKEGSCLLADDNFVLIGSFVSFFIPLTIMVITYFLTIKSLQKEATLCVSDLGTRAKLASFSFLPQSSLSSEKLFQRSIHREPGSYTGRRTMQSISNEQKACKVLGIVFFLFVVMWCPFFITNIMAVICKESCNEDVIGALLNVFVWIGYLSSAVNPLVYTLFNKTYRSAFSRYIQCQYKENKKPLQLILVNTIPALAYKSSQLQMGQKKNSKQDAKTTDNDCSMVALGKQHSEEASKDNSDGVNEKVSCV

Compound	inhibition at 1 µM [1] [%]	inhibition at 1 µM [2] [%]	inhibition at 1 µM [3] [%]	inhibition at 0.1 µM ([1]; 0.1 μM, read-out: Percent Inhibition of ligand binding, Adrenergic (0.1 μM ligand conc.) α1D) [%]
Cc1ccc(/C=C/n2c3c(c4cc(C)ccc42)C2CCN(C3)C2)cc1 (stereo not drawn) [Compound 10]	73	20	9	–
Cc1ccc2c(c1)c1c(n2CCc2ccc(C)nc2)CN2CCC1C2 (stereo not drawn) [Compound 12]	25	17	5	–
Cc1ccc2c(c1)c1c(n2CC(=O)N2CCNCC2)CN2CCC1C2 (stereo not drawn) [Compound 24]	2	3	5	–
Cc1ccc2c(c1)c1c(n2CC(C)(O)c2ccc(Cl)cc2Cl)CN2CCC1C2 (stereo not drawn) [Compound 14]	-5	61	87	–
C=C(Cn1c2c(c3cc(C)ccc31)C1CCN(C2)C1)c1ccc(F)cc1 (stereo not drawn) [Compound 3]	93	94	97	–
C/C(=C\n1c2c(c3cc(C)ccc31)C1CCN(C2)C1)c1ccncc1 (stereo not drawn) [Compound 44]	–	67	58	8
COc1ccc(C(O)Cn2c3c(c4cc(C)ccc42)C2CCN(C3)C2)cc1OC (stereo not drawn) [Compound 8]	20	25	12	–
Cc1ccc2c(c1)c1c(n2CC(=O)N(C)C)CN2CCC1C2 (stereo not drawn) [Compound 27]	9	-4	-1	–
Cc1ccc2c(c1)c1c(n2CC(C)(O)c2ccc(Cl)c(Cl)c2)CN2CCC1C2 (stereo not drawn) [Compound 13]	14	82	83	–
Cc1ccc2c(c1)c1c(n2CC(C)(O)c2ccc(F)cc2F)CN2CCC1C2 (stereo not drawn) [Compound 17]	19	81	92	–
